# From paper PMC6479714, “Multiplex Analysis Platform for Endocrine Disruption Prediction Using Zebrafish” (International Journal of Molecular Sciences, 2019)
# Where two headings read alike, the source gives them in different places.
# What was measured:
# vitellogenin 1 (vtg1) = assay: vtg1 gene expression (qPCR) in exposed zebrafish embryos; conditions: for EC50: Danio rerio, read-out: EC50 vtg1; for LogEC50 (vtg1 mRNA): log of EC50 in μM, 48-120 h, our study
# cyp19a1b - fluorescence = conditions: 0-96 h, cited from earlier work; for LogEC50 (cyp19a1b - fluorescence): log of EC50 in μM
# aromatase (cyp19a1) = assay: cyp19a gene expression (qPCR) in exposed zebrafish embryos; type: in vivo, zebrafish (Danio rerio); conditions: exposed 48–120 hpf; Figure S1
# vtg - blood [1] = conditions: 8 days (adults), cited from earlier work
# cyp19a1b - mRNA [2] = conditions: cited from earlier work
# vtg - blood [3] = conditions: cited from earlier work; for LogEC50 (vtg - blood): log of EC50 in μM
# [4] = test system: brain aromatase (cyp19a1b); assay: cyp19a1b gene expression (qPCR) in exposed zebrafish embryos; type: in vivo, zebrafish (Danio rerio)
# cyp19a1b - mRNA [5] = conditions: cited from earlier work; for LogEC50 (cyp19a1b - mRNA): log of EC50 in μM
# vtg - blood [6] = conditions: 21 days (adults), cited from earlier work; for EC50: read-out: EC50 (vtg - blood); for LogEC50 (vtg - blood): log of EC50 in μM
# vtg1 - fluorescence = conditions: 21 days (adults), cited from earlier work
# cyp19a1b - mRNA [7] = conditions: 14 days (adults), cited from earlier work
# vtg1 - mRNA = conditions: cited from earlier work
# carp hepatocytes = test system: carp hepatocytes; design: method as in PMID 10478856; conditions: concentrations up to 100 µM; cited from earlier work
# cyp19a1b - vtg1 mRNA = assay: estrogenic markers considered together (cyp19a1b - vtg1 mRNA), zebrafish embryos; conditions: Danio rerio, read-out: EC50 (cyp19a1b - vtg1 mRNA), class symbol
# thyroid peroxidase (tpo) = assay: tpo gene expression (qPCR) in exposed zebrafish embryos; type: in vivo, zebrafish (Danio rerio); conditions: for EC50: Danio rerio
# transthyretin (ttr) = assay: ttr gene expression (qPCR) in exposed zebrafish embryos; type: in vivo, zebrafish (Danio rerio); conditions: for EC50: Danio rerio
# dio2 - mRNA = test system: dio2 - mRNA; design: method as in earlier work; conditions: 0-120 h, ref [33] (supplement list), cited from earlier work
# [8] = acute toxicity test from 48–120 hpf based on the OECD FET test; type: in vivo, zebrafish (Danio rerio); conditions: in vivo; zebrafish embryos exposed 48–120 hpf
# Description: Twenty embryos per treatment were exposed to 5 concentrations of compound of interest in a 10× dilution factor from 48–120 hpf, which is the experimental time in which EDCs will be screened posteriorly. Embryos were exposed from 48–120 hpf rather than 0–96 hpf or 0–120 hpf to avoid unspecific toxicity outside of the EDC testing period, which have been chosen on the basis that endocrine pathways, e.g., thyroid metabolism, are not fully functional until 40–55 hpf in zebrafish embryos. Stock solutions of chemicals to be tested were freshly prepared in exposure medium. The highest concentration for each compound was selected according to its water solubility (Table S1). Exposures were performed in glass vessels to assure maximum bioavailability for hydrophobic compounds, and medium was not exchanged during the experiment.
# [9] = test system: iodothyronine deiodinase 2 (dio2); assay: dio2 gene expression (qPCR) in exposed zebrafish embryos; type: in vivo, zebrafish (Danio rerio); conditions: for EC50: Danio rerio
# thyroid receptor α (trα) = assay: trα gene expression (qPCR) in exposed zebrafish embryos; type: in vivo, zebrafish (Danio rerio); conditions: exposed 48–120 hpf
# pax8 = pax8 gene expression (qPCR) in exposed zebrafish embryos; type: in vivo, zebrafish (Danio rerio); conditions: exposed 48–120 hpf
# [10] = test system: iodothyronine deiodinase 1 (dio1); assay: dio1 gene expression (qPCR) in exposed zebrafish embryos; type: in vivo; conditions: Danio rerio; exposed 48–120 hpf; Figure 4; no unit printed for this gene
# [11] = E2 1 µM alone, rescue experiment
# [12] = ref [3] (supplement list: Brion 2012)
# [13] = log of EC50 in μM, 48-120 h, our study
# [14] = exogenous T3, 48–120 hpf, downregulated
smiles,measurement,setting,value
"C[C@]12CC[C@@H]3c4ccc(O)cc4CC[C@H]3[C@@H]1CC[C@@H]2O [E2, 17β-estradiol]",EC50,vitellogenin 1 (vtg1),190 nM
same,"FI vtg1, single exposure",vitellogenin 1 (vtg1); [11],394.39
same,LogEC50 (vtg1 mRNA),vitellogenin 1 (vtg1),-0.7212
same,EC50,cyp19a1b - fluorescence; ref [2] (supplement list: Petersen 2013),3.4 nM
same,EC50,cyp19a1b - fluorescence; [12],2.4 nM
same,LogEC50 (cyp19a1b - fluorescence),cyp19a1b - fluorescence; ref [2] (supplement list),-2.469
same,LogEC50 (cyp19a1b - fluorescence),cyp19a1b - fluorescence; ref [3] (supplement list),-2.62
same,response of cyp19a,aromatase (cyp19a1),no response
same,EC50,vtg - blood [1]; ref [12] (supplement list: Rose 2002),0.2 nM
same,LogEC50 (vtg - blood),"vtg - blood [1]; log of EC50 in μM, ref [12] (supplement list)",-3.699
same,"EC50 (cyp19a1b - mRNA), class symbol","cyp19a1b - mRNA [2]; 7 days (adults), ref [7] (supplement list: Hinfray 2006)",n.e.
same,"EC50 (cyp19a1b - mRNA), class symbol","cyp19a1b - mRNA [2]; 21 days (adults), ref [8] (supplement list: Kallivretaki 2006)",n.e.
same,EC50,"vtg - blood [3]; 14 days (adults), ref [14] (supplement list: Brian 2005)",0.09 nM
same,EC50,"vtg - blood [3]; 24 days (adults), ref [13] (supplement list: Van den Belt 2004)",0.6 nM
same,LogEC50 (vtg - blood),"vtg - blood [3]; 14 days (adults), ref [14] (supplement list)",-4.046
same,LogEC50 (vtg - blood),"vtg - blood [3]; 24 days (adults), ref [13] (supplement list)",-3.222
same,EC50,"[4]; Danio rerio, zebrafish embryos exposed 48–120 hpf, mRNA by qPCR",90 nM
same,"FI cyp19a1b, single exposure",[4]; [11],64.54
same,LogEC50 (cyp19a1b mRNA),[4]; [13],-1.046
same,EC50,"cyp19a1b - mRNA [5]; 0-72 h, * mean of an approximate range, ref [4] (supplement list: Lassiter 2007)",~10 nM
same,EC50,"cyp19a1b - mRNA [5]; 0-96 h, ref [3] (supplement list: Brion 2012)",4.1 nM
same,EC50,"cyp19a1b - mRNA [5]; 2-48 h, * mean of an approximate range, ref [6] (supplement list: Kishida 2001)",~10 nM
same,EC50,"cyp19a1b - mRNA [5]; 72-96 h, * mean of an approximate range, ref [5] (supplement list: Chung 2011)",~5.5 nM
same,LogEC50 (cyp19a1b - mRNA),"cyp19a1b - mRNA [5]; 0-72 h, ref [4] (supplement list)",-2
same,LogEC50 (cyp19a1b - mRNA),"cyp19a1b - mRNA [5]; 0-96 h, ref [3] (supplement list)",-2.387
same,LogEC50 (cyp19a1b - mRNA),"cyp19a1b - mRNA [5]; 2-48 h, ref [6] (supplement list)",-2
same,LogEC50 (cyp19a1b - mRNA),"cyp19a1b - mRNA [5]; 72-96 h, ref [5] (supplement list)",-2.26
same,EC50,"vtg - blood [6]; * mean of an approximate range, ref [16] (supplement list: Parks 1999)",~0.6 nM
same,EC50,vtg - blood [6]; ref [15] (supplement list: Dammann 2011),0.09 nM
same,LogEC50 (vtg - blood),vtg - blood [6]; ref [15] (supplement list),-4.046
same,LogEC50 (vtg - blood),vtg - blood [6]; ref [16] (supplement list),-3.222
same,EC50,vtg1 - fluorescence; ref [17] (supplement list: Zeng 2005),~0.55 nM
same,LogEC50 (vtg1 - fluorescence),"vtg1 - fluorescence; log of EC50 in μM, ref [17] (supplement list)",-3.26
same,EC50,"cyp19a1b - mRNA [7]; effects only detected in males, ref [9] (supplement list: Halm 2002)",0.4 nM
same,LogEC50 (cyp19a1b - mRNA),"cyp19a1b - mRNA [7]; log of EC50 in μM, males, ref [9] (supplement list)",-3.398
same,EC50,"vtg1 - mRNA; 0-120 h, * mean of an approximate range, ref [11] (supplement list: Muncke 2006), read-out: EC50 (vtg1 - mRNA)",~30 nM
same,EC50,"vtg1 - mRNA; 0-168 h, * mean of an approximate range, ref [10] (supplement list: Chen 2018), read-out: EC50 (vtg1 - mRNA)",~180 nM
same,LogEC50 (vtg1 - mRNA),"vtg1 - mRNA; log of EC50 in μM, 0-120 h, ref [11] (supplement list)",-1.523
same,LogEC50 (vtg1 - mRNA),"vtg1 - mRNA; log of EC50 in μM, 0-168 h, ref [10] (supplement list)",-0.757
"O=S1OCC2C(CO1)C1(Cl)C(Cl)=C(Cl)C2(Cl)C1(Cl)Cl (stereo not drawn) [END, endosulfan]",FI vtg1 at the most effective concentration,"vitellogenin 1 (vtg1); 4 µM, compared to controls, downregulation",0.35
same,EC50,vitellogenin 1 (vtg1),330 nM
same,LogEC50 (vtg1 mRNA),vitellogenin 1 (vtg1),-0.4815
same,downregulation of vtg1 expression compared to controls,vitellogenin 1 (vtg1); most effective concentration (4 µM),more than 50%
same,"EC50 (cyp19a1b - fluorescence), class symbol",cyp19a1b - fluorescence; [12],n.e.
same,induction of vitellogenesis in carp hepatocytes,carp hepatocytes,not able to induce vitellogenesis
same,effect on expression of cyp19a1b,[4]; exposed 48–120 hpf,not affecting expression
same,EC50,cyp19a1b - vtg1 mRNA,> 4000 nM
same,EC50,thyroid peroxidase (tpo); read-out: EC50 tpo,60 nM
same,EC50,"vtg1 - mRNA; 6-96 h, ref [25] (supplement list: Moon 2016), read-out: EC50 (vtg mRNA)",1960 nM
same,LogEC50 (vtg mRNA),"vtg1 - mRNA; log of EC50 in μM, 6-96 h, ref [25] (supplement list)",0.2923
"CCCCC(O)(Cn1cncn1)c1ccc(Cl)cc1Cl (stereo not drawn) [HEX, hexaconazole]",effect on ttr expression,transthyretin (ttr); exposed 48–120 hpf,remained unaltered
same,EC50,dio2 - mRNA; * mean of an approximate range,~3980 nM
same,LogEC50 (dio2 - mRNA),dio2 - mRNA; log of EC50 in μM,0.5999
same,LC50,[8],23400 nM
same,EC50,"[9]; zebrafish embryos exposed 48–120 hpf, mRNA by qPCR, read-out: EC50 dio2",2220 nM
same,LogEC50 (dio2 - mRNA),[9]; [13],0.3464
same,effect on trα expression,thyroid receptor α (trα),remained unaltered
"N[C@@H](Cc1cc(I)c(Oc2ccc(O)c(I)c2)c(I)c1)C(=O)O [T3, 3,3′,5-triiodo-L-thyronine]",EC50,"transthyretin (ttr); read-out: EC50 ttr, exposed 48–120 hpf, Figure 4, downregulated",0.31 nM
same,EC50,"transthyretin (ttr); read-out: EC50 ttr, exposure 0–96 hpf, Figure 1, comparison of exposure windows, 0–96 hpf",0.49 nM
same,EC50,"transthyretin (ttr); read-out: EC50 ttr, exposure 48–120 hpf, Figure 1, comparison of exposure windows, 48–120 hpf",0.32 nM
same,EC50,"transthyretin (ttr); read-out: EC50 ttr, zebrafish embryos exposed 48–120 hpf, mRNA by qPCR",0.3 nM
same,FI ttr,transthyretin (ttr); [14],0.49
same,response of pax8,pax8,lack of response
same,LC50,[8],6000 nM
same,EC50,"thyroid peroxidase (tpo); read-out: EC50 tpo, exposed 48–120 hpf, Figure 4, upregulated",9.93 nM
same,EC50,"thyroid peroxidase (tpo); read-out: EC50 tpo, exposure 48–120 hpf, Figure 1, comparison of exposure windows, 48–120 hpf",4.09 nM
same,EC50,"thyroid peroxidase (tpo); read-out: EC50 tpo, zebrafish embryos exposed 48–120 hpf, mRNA by qPCR",10 nM
same,"effect on tpo expression, exposure 0–96 hpf",thyroid peroxidase (tpo); embryos exposed from 0–96 hpf,slight decrease
same,FI tpo,"thyroid peroxidase (tpo); exogenous T3, 48–120 hpf, upregulated",4.11
same,EC50,[10],3.58 nM
same,EC50,"[9]; read-out: EC50 dio2, exposed 48–120 hpf, Figure 4, downregulated",0.28 nM
same,EC50,"[9]; read-out: EC50 dio2, exposure 0–96 hpf, Figure 1, comparison of exposure windows, 0–96 hpf",6.81 nM
same,EC50,"[9]; read-out: EC50 dio2, exposure 48–120 hpf, Figure 1, comparison of exposure windows, 48–120 hpf",1.23 nM
same,EC50,"[9]; read-out: EC50 dio2, zebrafish embryos exposed 48–120 hpf, mRNA by qPCR",0.3 nM
same,FI dio2,[9]; [14],0.26
